{"source": "patent US20120270864A1", "about": "“2-QUINOLINONE AND 2-QUINOXALINONE-DERIVATIVES AND THEIR USE AS ANTIBACTERIAL AGENTS” (ASTRAZENECA AB, priority 2006, published 2012)"}
{"test_system": "Staphylococcus aureus (Sau) 516 cells", "assay": "Bacterial Susceptibility Testing Methods 2 (microbroth dilution, growth inhibition)", "format": "cell-based", "settings": "Staphylococcus aureus, Tested Concentration 8 μg/mL; Staphylococcus aureus 516 cell growth suppressed compared to untreated sample", "excerpt": "(§1) Compounds may be tested for antimicrobial activity by susceptibility testing using microbroth dilution methods recommended by CSLI. Compounds may be dissolved in dimethylsulfoxide and tested in 10 doubling dilutions in the susceptibility assays such that the final dimethylsulfoxide concentration in the assay is 2% (v/v). The Staphylococcus aureus (Sau) 516 cells used in the assay may be grown overnight on appropriate agar media and then suspended in the NCCLS-recommended liquid susceptibility-testing media. […] Plates may be incubated under appropriate conditions of atmosphere and temperature and for times according to NCCLS standard methods prior to being read. As used in Table 1 below, the term “inhibition” refers to the percentage of Staphylococcus aureus 516 cell growth that is suppressed (compared to an untreated sample) by the compound of the indicated example number. When tested in the above in-vitro assay, the compounds and salts of the example numbers listed below were tested at the indicated concentrations, providing the indicated inhibitions. In most instances, the highest concentrations at which the compounds were tested was 8 μg/mL. In some instances, however, compounds were tested at concentrations higher than 8 μg/mL, typically when the concentration was first measured in μM and was subsequently converted to μg/mL. In those cases in which compounds were tested at more than one concentration higher than 8 μg/mL, the concentration closest to 8 μg/mL is provided below.", "units": {"inhibition at 8 µg/mL": "%"}}
{"smiles": "COc1ccc2ncc(=O)n(CCN3CC[C@@H](NCc4ccc5c(n4)NC(=O)CO5)[C@@H](F)C3)c2c1", "note": "[Example 45, 6-[({(3S,4R)-3-Fluoro-1-[2-(7-methoxy-2-oxoquinoxalin-1(2H)-yl)ethyl]piperidin-4-yl}amino)methyl]-2H-pyrido[3,2-b][1,4]oxazin-3(4H)-one]", "inhibition at 8 µg/mL": 97}
{"smiles": "N#Cc1ccc2ccc(=O)n(CCN3CC[C@H](NCc4ccc5c(n4)NC(=O)CS5)[C@H](O)C3)c2c1", "note": "[Example 3, 1-[2-((3R,4S)-3-Hydroxy-4-{[(3-oxo-3,4-dihydro-2H-pyrido[3,2-b][1,4]thiazin-6-yl)methyl]amino}piperidin-1-yl)ethyl]-2-oxo-1,2-dihydroquinoline-7-carbonitrile]", "inhibition at 8 µg/mL": 99}
{"smiles": "COc1ccc2ncc(=O)n(CCN3CC[C@H](NCc4cc5c(cn4)OCCO5)[C@H](O)C3)c2c1", "note": "[Example 7, 1-(2-{(3R,4S)-4-[(2,3-Dihydro[1,4]dioxino[2,3-c]pyridin-7-ylmethyl)amino]-3-hydroxypiperidin-1-yl}ethyl)-7-methoxyquinoxalin-2(1H)-one]", "inhibition at 8 µg/mL": 100}
{"smiles": "N#Cc1ccc2ccc(=O)n(CCN3CC[C@@H](NCc4cc5c(cn4)OCCO5)[C@@H](F)C3)c2c1", "note": "[Example 12, 1-(2-{(3S,4R)-4-[(2,3-Dihydro[1,4]dioxino[2,3-c]pyridin-7-ylmethyl)amino]-3-fluoropiperidin-1-yl}ethyl)-2-oxo-1,2-dihydroquinoline-7-carbonitrile]", "inhibition at 8 µg/mL": 100}
{"smiles": "COc1ccc2ncc(=O)n(CCN3CC[C@@H](NCc4ccc5c(n4)NC(=O)CO5)[C@H](OC)C3)c2c1", "note": "[Example 28, 6-[({(3R,4R)-3-Methoxy-1-[2-(7-methoxy-2-oxoquinoxalin-1(2H)-yl)ethyl]piperidin-4-yl}amino)methyl]-2H-pyrido[3,2-b][1,4]oxazin-3(4H)-one]", "inhibition at 8 µg/mL": 98}
{"smiles": "COc1ccc2ncc(=O)n(CCN3CC[C@H](NCc4cc5c(cn4)OCCO5)[C@@H](OC)C3)c2c1", "note": "[Example 25, 1-(2-{(3S,4S)-4-[(2,3-Dihydro[1,4]dioxino[2,3-c]pyridin-7-ylmethyl)amino]-3-methoxypiperidin-1-yl}ethyl)-7-methoxyquinoxalin-2(1H)-one]", "inhibition at 8 µg/mL": 98}
{"smiles": "COc1ccc2ncc(=O)n(CCN3CC[C@H](NCc4ccc5c(n4)NC(=O)CO5)[C@H](F)C3)c2c1", "note": "[Example 46, 6-[({(3R,4S)-3-Fluoro-1-[2-(7-methoxy-2-oxoquinoxalin-1(2H)-yl)ethyl]piperidin-4-yl}amino)methyl]-2H-pyrido[3,2-b][1,4]oxazin-3 (4H)-one]", "inhibition at 8 µg/mL": 100}
{"smiles": "CO[C@@H]1CN(CCn2c(=O)ccc3ccc(C#N)cc32)CC[C@@H]1NCc1cc2c(cn1)OCCO2", "note": "[Example 22, 1-(2-{(3R,4S)-4-[(2,3-Dihydro[1,4]dioxino[2,3-c]pyridin-7-ylmethyl)amino]-3-methoxypiperidin-1-yl}ethyl)-2-oxo-1,2-dihydroquinoline-7-carbonitrile]", "inhibition at 8 µg/mL": 100}
{"smiles": "CO[C@@H]1CN(CCn2c(=O)cc(C)c3ccc(C#N)cc32)CC[C@@H]1NCc1ccc2c(n1)NC(=O)CO2", "note": "[Example 47, 1-[2-((3R,4S)-3-M ethoxy-4-{[(3-oxo-3,4-dihydro-2H-pyrido[3,2-b][1,4]oxazin-6-yl)methyl]amino}piperidin-1-yl)ethyl]-4-methyl-2-oxo-1,2-dihydroquinoline-7-carbonitrile]", "inhibition at 8 µg/mL": 100}
{"smiles": "COc1ccc2ncc(=O)n(CCN3CCC(NCc4cc5c(cn4)OCCO5)C(O)C3)c2c1", "note": "(single isomer, unassigned) [Example 29, 1-(2-{4-[(2,3-Dihydro[1,4]dioxino[2,3-c]pyridin-7-ylmethyl)amino]-3-hydroxypiperidin-1-yl}ethyl)-7-methoxyquinoxalin-2(1H)-one]", "inhibition at 8 µg/mL": 84}
{"smiles": "COc1ccc2ncc(=O)n(CCN3CCC(NCc4ccc5c(n4)NC(=O)CO5)C(O)C3)c2c1", "note": "(single isomer, unassigned) [Example 30, 6-[({3-Hydroxy-1-[2-(7-methoxy-2-oxoquinoxalin-1(2H)-yl)ethyl]piperidin-4-yl}amino)methyl]-2H-pyrido[3,2-b][1,4]oxazin-3(4H)-one]", "inhibition at 8 µg/mL": 98}
{"smiles": "N#Cc1ccc2ccc(=O)n(CCN3CC[C@H](NCc4cc5c(cn4)OCCO5)[C@H](F)C3)c2c1", "note": "[Example 13, 1-(2-{(3R,4S)-4-[(2,3-Dihydro[1,4]dioxino[2,3-c]pyridin-7-ylmethyl)amino]-3-fluoropiperidin-1-yl}ethyl)-2-oxo-1,2-dihydro quino line-7-carbonitrile]", "inhibition at 8 µg/mL": 100}
{"smiles": "COc1ccc2ncc(=O)n(CCN3CC[C@@H](NCc4ccc5c(n4)NC(=O)CO5)[C@@H](O)C3)c2c1", "note": "[Example 11, 6-[({(3S,4R)-3-Hydroxy-1-[2-(7-methoxy-2-oxoquinoxalin-1(2H)-yl)ethyl]piperidin-4-yl}amino)methyl]-2H-pyrido[3,2-b][1,4]oxazin-3(4H)-one]", "inhibition at 8 µg/mL": 100}
{"test_system": "Staphylococcus aureus (Sau) 516 cells", "assay": "Bacterial Susceptibility Testing Methods 2 (microbroth dilution, growth inhibition)", "format": "cell-based", "settings": "Staphylococcus aureus, Tested Concentration 12 μg/mL; Staphylococcus aureus 516 cell growth", "excerpt": "as §1", "units": {"inhibition at 12 µg/mL": "%"}}
{"smiles": "N#Cc1ccc2ccc(=O)n(CCN3CCC(NCc4ccc5c(n4)NC(=O)CO5)C(F)C3)c2c1", "note": "(single isomer, unassigned) [Example 38, 1-[2-(3-Fluoro-4-{[(3-oxo-3,4-dihydro-2H-pyrido[3,2-b][1,4]oxazin-6-yl)methyl]amino}piperidin-1-yl)ethyl]-2-oxo-1,2-dihydro quino line-7-carbonitrile]", "inhibition at 12 µg/mL": 100}
{"test_system": "Staphylococcus aureus (Sau) 516 cells", "assay": "Bacterial Susceptibility Testing Methods 2 (microbroth dilution, growth inhibition)", "format": "cell-based", "settings": "Staphylococcus aureus, Tested Concentration 13 μg/mL; Staphylococcus aureus 516 cell growth", "excerpt": "as §1", "units": {"inhibition at 13 µg/mL": "%"}}
{"smiles": "N#Cc1ccc2ccc(=O)n(CCN3CCC(NCc4cc5c(cn4)OCCO5)C(F)C3)c2c1", "note": "(single isomer, unassigned) [Example 33, 1-(2-{4-[(2,3-Dihydro[1,4]dioxino[2,3-c]pyridin-7-ylmethyl)amino]-3-fluoropiperidin-1-yl}ethyl)-2-oxo-1,2-dihydroquinoline-7-carbonitrile]", "inhibition at 13 µg/mL": 96}
{"smiles": "N#Cc1ccc2ccc(=O)n(CCN3CC[C@H](NCc4ccc5c(n4)NC(=O)CO5)[C@H](F)C3)c2c1", "note": "[Example 52, 1-[2-((3R,4S)-3-fluoro-4-{[(3-oxo-3,4-dihydro-2H-pyrido[3,2-b][1,4]oxazin-6-yl)methyl]amino}piperidin-1-yl)ethyl]-2-oxo-1,2-dihydroquinoline-7-carbonitrile]", "inhibition at 13 µg/mL": 100}
{"test_system": "Staphylococcus aureus (Sau) 516 cells", "assay": "Bacterial Susceptibility Testing Methods 2 (microbroth dilution, growth inhibition)", "format": "cell-based", "settings": "Tested Concentration 8 μg/mL; Staphylococcus aureus 516 cell growth suppressed compared to untreated sample", "excerpt": "as §1", "units": {"Inhibition (%)": "%"}}
{"smiles": "COc1ccc2ncc(=O)n(CCN3CC[C@H](NCc4ccc5c(n4)NC(=O)CS5)[C@H](O)C3)c2c1", "note": "[Example 9]", "Inhibition (%)": 100}
{"smiles": "N#Cc1ccc2ccc(=O)n(CCN3CC[C@H](NCc4cc5c(cn4)OCCO5)[C@H](O)C3)c2c1", "note": "[Example 1]", "Inhibition (%)": 100}
{"smiles": "CO[C@@H]1CN(CCn2c(=O)ccc3ccc(C#N)cc32)CC[C@H]1NCc1cc2c(cn1)OCCO2", "note": "[Example 41, 1-(2-{(3R,4R)-4-[(2,3-dihydro[1-yl]dioxino[2,3-c]pyridin-7-ylmethyl)amino]-3-methoxypiperidin-1-yl}ethyl)-2-oxo-1,2-dihydro quinoline-7-carbonitrile]", "Inhibition (%)": 100}
{"test_system": "Staphylococcus aureus (Sau) 516 cells", "assay": "Bacterial Susceptibility Testing Methods 2 (microbroth dilution, growth inhibition)", "format": "cell-based", "settings": "Tested Concentration 12 μg/mL; Staphylococcus aureus 516 cell growth", "excerpt": "as §1", "units": {"Inhibition (%)": "%"}}
{"smiles": "COc1ccc2ncc(=O)n(CCN3CCC(NCc4ccc5c(n4)NC(=O)CO5)C(F)C3)c2c1", "note": "(single isomer, unassigned) [Example 40, 6-[({3-Fluoro-1-[2-(7-methoxy-2-oxoquinoxalin-1(2H)-yl)ethyl]piperidin-4-yl}amino)methyl]-2H-pyrido[3,2-b][1,4]oxazin-3 (4H)-one]", "Inhibition (%)": 100}
{"test_system": "Staphylococcus aureus (Sau) 516 cells", "assay": "Bacterial Susceptibility Testing Methods 2 (microbroth dilution, growth inhibition)", "format": "cell-based", "settings": "Tested Concentration 13 μg/mL; Staphylococcus aureus 516 cell growth", "excerpt": "as §1", "units": {"Inhibition (%)": "%"}}
{"smiles": "N#Cc1ccc2ccc(=O)n(CCN3CCC(NCc4cc5c(cn4)OCCO5)C(F)C3)c2c1", "note": "(single isomer, unassigned) [Example 37, 1-(2-{4-[(2,3-Dihydro[1,4]dioxino[2,3-c]pyridin-7-ylmethyl)amino]-3-fluoropiperidin-1-yl}ethyl)-2-oxo-1,2-dihydroquinoline-7-carbonitrile]", "Inhibition (%)": 100}
